Assay [1] can be described thus: yeast lifespan-shortening chemical project counter-assay, dose-response inhibition of growth under permissive conditions (AID 850).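 Note: growth read as optical density after one day of incubation.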 The conditions noted are these: Saccharomyces cerevisiae growth inhibition, permissive control, measured here: maximum growth inhibition, stronger effect = higher value.
Assay [2] deals with Saccharomyces cerevisiae growth inhibition, permissive control. Described as above.

Each structure is given as a SMILES string. Calls of active or inactive are those of the source. The rule behind the calls is not given here.

Regarding `COc1ccc(C(=O)NC(=S)NNC(=O)c2cnccn2)cc1`, the inhibition in assay [1] (at 50 µM) stood at 71.2%. Moreover, the concentration for half-maximal inhibition (IC50) in assay [2] was 14.2 µM.
Regarding `O=c1oc2ccccc2c(O)c1/C=C1\C=Nc2ccccc21`, in assay [1] (at 50 µM), the inhibition worked out at 93.2%. The IC50 in assay [2] was 5.05 µM.
The matching figures for `O=C(CSC1=NS(=O)(=O)c2ccccc21)Nc1ccccc1`: 17.7% and > 100 µM (inactive).
With `Cc1ccc2c(c1)c1c(n2C)-c2[nH]ncc2CC1`, the inhibition in assay [1] (at 50 µM) worked out at 71.1%. The 50% inhibitory concentration (IC50) in assay [2] is 38.2 µM.
Take `Cc1c2cc(O)c(=O)cc-2oc2cc(O)c(O)cc12`: in assay [1] (at 25 µM), the inhibition was determined as 39.9%.
As for `Cc1nnc(C)n1/N=C/c1cc(Br)cc(Br)c1O`, the inhibition in assay [1] (at 50 µM) came out at 99.2%. Further, in assay [2], the IC50 is 0.324 µM.
As for `COc1cc(CNCCN2CCOCC2)ccc1OCc1cccc(Cl)c1`, the inhibition in assay [1] (at 25 µM) is 12.3%. Also, the IC50 in assay [2] is > 100 µM (inactive).
`O=C1NC(c2ccccn2)Nc2sc3c(c21)CCC3` (stereo not given): the inhibition in assay [1] (at 0.195 µM) came out at 25.5%. In addition, the IC50 in assay [2] is > 100 µM (inactive).
For `O=C1Cc2ccccc2C(=O)N1CCc1ccccc1`, the inhibition in assay [1] (at 0.781 µM) stood at 20.7%. For the same molecule, the IC50 in assay [2] was > 100 µM (inactive).
Consider `Cc1ccc(C(NC(=O)C(C)C)c2cc([N+](=O)[O-])c3cccnc3c2O)cc1` (stereo not given), for which, in assay [1] (at 50 µM), the inhibition was 90.4%. Besides, the IC50 in assay [2] is 28.8 µM.
With `CC(C)(C)C(=O)O/N=C1/C(=O)N(c2ccccc2)c2ccccc21`, the inhibition in assay [1] (at 25 µM) was 52.3%. Also, the IC50 in assay [2] is 42.9 µM.
On to `Oc1cccc(/C=N/NC(=S)Nc2cccnc2)c1O`, for which the inhibition in assay [1] (at 0.781 µM) worked out at 7.13%. In addition, the IC50 in assay [2] is > 100 µM (inactive).
As to `COCC(C)OC(=O)/C(C#N)=C\c1coc2ccc(C)cc2c1=O` (stereo not given), the inhibition in assay [1] (at 50 µM) was determined as 16.6%. In addition, the IC50 in assay [2] is > 100 µM (inactive).
As for `O=c1[nH]c2ccccc2c2nc3ccccn3c12`, the inhibition in assay [1] (at 25 µM) is 18.1%. The IC50 in assay [2] was > 100 µM (inactive).
Regarding `COc1cccc(/C=N/Nc2ncc(C(F)(F)F)cc2Cl)c1O`, in assay [1] (at 50 µM), the inhibition amounted to 29.3%. In addition, the IC50 in assay [2] was > 100 µM (inactive).
For `Clc1ccccc1N/N=C/c1ccc2c(c1)OCO2` the same measures were 98% and 24.4 µM.
For `CC(=O)N1c2ccccc2C2(O)N=C(C)SC12` (stereo not given), the inhibition in assay [1] (at 50 µM) worked out at 16%. In addition, the IC50 in assay [2] was > 100 µM (inactive).
In the case of `CCCCCCCCC/C(=N\O)c1ccccn1`, the inhibition in assay [1] (at 50 µM) amounted to 101%. Also, the 50% inhibitory concentration (IC50) in assay [2] is 5.48 µM.
In the case of `COC(=O)c1ccc2c(c1O)C(=O)c1ccccc1C2=O`, the inhibition in assay [1] (at 50 µM) stood at 57.6%.
In the case of `CC(C)N=c1scc(-c2ccco2)n1/N=C/c1ccc(O)c(O)c1`, the inhibition in assay [1] (at 50 µM) amounted to 36.7%.
In the case of `COc1ccc(NCc2ccc([N+](=O)[O-])s2)c(OC)c1`, the inhibition in assay [1] (at 50 µM) stood at 43.9%.
Still for that read-out and setting: the figure for `Cn1c(=O)c2nc(-c3ccccc3)oc2c2ccccc21` is 38.2%.
For the molecule `c1ccc(-c2ccc(-c3ccccn3)nn2)nc1`, the inhibition in assay [1] (at 50 µM) came to 36.1%.
In the case of `O=[N+]([O-])c1ccc(N=Nc2ccc(O)cc2O)cc1`, the inhibition in assay [1] (at 50 µM) worked out at 36.3%.
Consider `CCOc1cc(CNCCO)cc(Br)c1OCc1ccc(Cl)cc1Cl`, for which the inhibition in assay [1] (at 50 µM) worked out at 46.1%.
Regarding `Cn1c2ccccc2c(=O)n2c(=O)c3ccccc3cc12`, the inhibition in assay [1] (at 12.5 µM) was 30.2%.
Take `CCc1ccc2c(c1)C1(NN=C(c3cccc4ccccc34)S1)C(=O)N2` (stereo not given): the inhibition in assay [1] (at 50 µM) was determined as 32.3%.
As to `O=C(NC(Nc1nc2ccc([N+](=O)[O-])cc2s1)(C(F)(F)F)C(F)(F)F)c1ccccc1`, the inhibition in assay [1] (at 50 µM) was 34.1%.
For `CCCOC(=O)c1ccc(Oc2cn[nH]c2-c2ccc(OCC)cc2O)cc1`, in assay [1] (at 3.125 µM), the inhibition came to 34.6%.
For `CCCOC(=O)c1ccc(Oc2cn[nH]c2-c2ccc(OC)cc2O)cc1`, the inhibition in assay [1] (at 50 µM) came to 32.4%.
The same measure, in the same setting: the result for `Cc1nn(-c2ccccc2)c2sc(C(=O)O)cc12` reads 41.3%.
On to `COc1ccc2nc(NC(=S)N(C)C)sc2c1`, for which the inhibition in assay [1] (at 12.5 µM) worked out at 35%.
`NNC(=O)c1cccc(COc2ccc(Br)cc2)c1`: in assay [1] (at 50 µM), the inhibition came out at 54.5%.
The same measure, in the same setting: the result for `Cc1nn(-c2ccccc2)c2sc(-c3n[nH]c(=S)o3)cc12` reads 36.1%; that for `O=S(=O)(Nc1ccc(-c2nc3ccccc3o2)cc1)c1ccccc1`, 30.1%; that for `O=Nc1c2nc3ccccc3n(O)c-2c2ccccc12`, 37.8%.
Take `CC(=O)N1N=C(c2ccc(Cl)cc2)OC1(C)C`: the inhibition in assay [1] (at 3.125 µM) came to 41%.
Turning to `Cc1cc(N2CCN(C(=O)c3ccco3)CC2)n2ncc(-c3ccccc3)c2n1`, the inhibition in assay [1] (at 50 µM) stood at 51.7%.

As usually defined, the inhibition is the drop in the measured response relative to a control, in per cent. A word on the IC50: it is the point on the concentration scale where inhibition reaches its midpoint.

(Values after PubChem BioAssay AID850 (SRMLSC, 2007).)
